SMILES strings stand for the structures.

For this experiment, the target named is SMYD3 (Homo sapiens (Human), UniProt Q9H7B4). The experiment in a line: SMYD3 biochemical assay (SPA, 3H-SAM methylation of MEKK2 protein substrate). As to conditions: read-out: SMYD3 Biochem IC50 (μM)*. An outline of the steps:
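SPA methyltransferase format: tag-cleaved human SMYD3, insect-cell GST-MEKK2 protein substrate, 3H-SAM donor, 30 min RT enzyme–compound preincubation, 100 uM cold SAM quench.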
Turning to `CC(C)OCCS(=O)(=O)N1CC[C@H](NC(=O)c2cc(C3CC3)on2)C[C@@H]1C` [compound 237, 5-cyclopropyl-N-((2S,4S)-1-((2-isopropoxyethyl)sulfonyl)-2-methylpiperidin-4-yl)isoxazole-3-carboxamide], the concentration for half-maximal inhibition (IC50) came to 3.46 µM.

For `CCCS(=O)(=O)N1CC[C@H](NC(=O)c2cc(C3CC3)on2)C[C@H]1C` [compound 238, 5-cyclopropyl-N-((2R,4S)-2-methyl-1-(propylsulfonyl)piperidin-4-yl)isoxazole-3-carboxamide], the IC50 is greater than 10 µM.

With `CC(C)CS(=O)(=O)N1CC[C@H](NC(=O)c2cc(C3CC3)on2)C[C@H]1C` [compound 239, 5-cyclopropyl-N-((2R,4S)-1-(isobutylsulfonyl)-2-methylpiperidin-4-yl)isoxazole-3-carboxamide], the IC50 was greater than 10 µM.

Take `CCCCS(=O)(=O)N1CC[C@H](NC(=O)c2cc(C3CC3)on2)C[C@H]1C` [compound 240, N-((2R,4S)-1-(butylsulfonyl)-2-methylpiperidin-4-yl)-5-cyclopropylisoxazole-3-carboxamide]: the half-inhibitory concentration (IC50) was greater than 10 µM.

For `C[C@@H]1C[C@@H](NC(=O)c2cc(C3CC3)on2)CCN1S(=O)(=O)c1ccc(Cl)nc1` [compound 241, N-((2R,4S)-1-((6-chloropyridin-3-yl)sulfonyl)-2-methylpiperidin-4-yl)-5-cyclopropylisoxazole-3-carboxamide], the 50% inhibitory concentration (IC50) is greater than 10 µM.

For the compound `C[C@@H]1C[C@@H](NC(=O)c2cc(C3CC3)on2)CCN1S(=O)(=O)N1CCCC1` [compound 242, 5-cyclopropyl-N-((2R,4S)-2-methyl-1-(pyrrolidin-1-ylsulfonyl)piperidin-4-yl)isoxazole-3-carboxamide], the 50% inhibitory concentration (IC50) is greater than 10 µM.

As for `C[C@@H]1C[C@@H](NC(=O)c2cc(C3CC3)on2)CCN1S(=O)(=O)N1CCN(C)CC1` [compound 243, 5-cyclopropyl-N-((2R,4S)-2-methyl-1-((4-methylpiperazin-1-yl)sulfonyl)piperidin-4-yl)isoxazole-3-carboxamide], the IC50 turned out to be 1.76 µM.

On to `CCOC(=O)CS(=O)(=O)N1CC[C@@H](NC(=O)c2cc(C3CC3)on2)C[C@@H]1C` [compound 245, ethyl 2-(((2S,4R)-4-(5-cyclopropylisoxazole-3-carboxamido)-2-methylpiperidin-1-yl)sulfonyl)acetate], for which the IC50 was greater than 10 µM.

Regarding `C[C@H]1C[C@H](NC(=O)c2cc(C3CC3)on2)CCN1S(=O)(=O)CC(F)(F)F` [compound 246, 5-cyclopropyl-N-((2S,4R)-2-methyl-1-((2,2,2-trifluoroethyl)sulfonyl)piperidin-4-yl)isoxazole-3-carboxamide], the IC50 was greater than 10 µM.

As for `C[C@H]1C[C@H](NC(=O)c2cc(C3CC3)on2)CCN1S(=O)(=O)C1CC1` [compound 247, 5-cyclopropyl-N-((2S,4R)-1-(cyclopropylsulfonyl)-2-methylpiperidin-4-yl)isoxazole-3-carboxamide], the 50% inhibitory concentration (IC50) is greater than 10 µM.

Turning to `COCCS(=O)(=O)N1CC[C@@H](NC(=O)c2cc(C3CC3)on2)C[C@@H]1C` [compound 248, 5-cyclopropyl-N-((2S,4R)-1-((2-methoxyethyl)sulfonyl)-2-methylpiperidin-4-yl)isoxazole-3-carboxamide], the half-inhibitory concentration (IC50) was greater than 10 µM.

For the compound `CCCS(=O)(=O)N1CC[C@@H](NC(=O)c2cc(C3CC3)on2)C[C@H]1C` [compound 249, 5-cyclopropyl-N-((2R,4R)-2-methyl-1-(propylsulfonyl)piperidin-4-yl)isoxazole-3-carboxamide], the IC50 is greater than 10 µM.

Take `CC(C)CS(=O)(=O)N1CC[C@@H](NC(=O)c2cc(C3CC3)on2)C[C@H]1C` [compound 250, 5-cyclopropyl-N-((2R,4R)-1-(isobutylsulfonyl)-2-methylpiperidin-4-yl)isoxazole-3-carboxamide]: the concentration for half-maximal inhibition (IC50) is 9.45 µM.

Consider `CCCCS(=O)(=O)N1CC[C@@H](NC(=O)c2cc(C3CC3)on2)C[C@H]1C` [compound 251, N-((2R,4R)-1-(butylsulfonyl)-2-methylpiperidin-4-yl)-5-cyclopropylisoxazole-3-carboxamide], for which the IC50 came out at 6.15 µM.

For `CCOC(=O)CS(=O)(=O)N1CC[C@@H](NC(=O)c2cc(C3CC3)on2)C[C@H]1C` [compound 252, ethyl 2-(((2R,4R)-4-(5-cyclopropylisoxazole-3-carboxamido)-2-methylpiperidin-1-yl)sulfonyl)acetate], the concentration for half-maximal inhibition (IC50) was greater than 10 µM.

In the case of `C[C@@H]1C[C@H](NC(=O)c2cc(C3CC3)on2)CCN1S(=O)(=O)c1ccc(Cl)nc1` [compound 253, N-((2R,4R)-1-((6-chloropyridin-3-yl)sulfonyl)-2-methylpiperidin-4-yl)-5-cyclopropylisoxazole-3-carboxamide], the concentration for half-maximal inhibition (IC50) was greater than 10 µM.

With `C[C@@H]1C[C@H](NC(=O)c2cc(C3CC3)on2)CCN1S(=O)(=O)N1CCCC1` [compound 254, 5-cyclopropyl-N-((2R,4R)-2-methyl-1-(pyrrolidin-1-ylsulfonyl)piperidin-4-yl)isoxazole-3-carboxamide], the 50% inhibitory concentration (IC50) worked out at 4.14 µM.

`C[C@@H]1C[C@H](NC(=O)c2cc(C3CC3)on2)CCN1S(=O)(=O)N1CCN(C)CC1` [compound 255, 5-cyclopropyl-N-((2R,4R)-2-methyl-1-((4-methylpiperazin-1-yl)sulfonyl)piperidin-4-yl)isoxazole-3-carboxamide]: the IC50 was 1.2 µM.

For the compound `COC(=O)CCS(=O)(=O)N1CC[C@@H](NC(=O)c2cc(C3CC3)on2)C[C@H]1C` [compound 256, methyl 3-(((2R,4R)-4-(5-cyclopropylisoxazole-3-carboxamido)-2-methylpiperidin-1-yl)sulfonyl)propanoate], the 50% inhibitory concentration (IC50) was greater than 10 µM.

As for `COCCS(=O)(=O)N1CC[C@@H](NC(=O)c2cc(C3CC3)on2)C[C@H]1C` [compound 257, 5-cyclopropyl-N-((2R,4R)-1-((2-methoxyethyl)sulfonyl)-2-methylpiperidin-4-yl)isoxazole-3-carboxamide], the half-inhibitory concentration (IC50) came to 9.29 µM.

Regarding `C[C@@H]1C[C@H](NC(=O)c2cc(C3CC3)on2)CCN1S(=O)(=O)CCC(F)(F)F` [compound 258, 5-cyclopropyl-N-((2R,4R)-2-methyl-1-((3,3,3-trifluoropropyl)sulfonyl)piperidin-4-yl)isoxazole-3-carboxamide], the concentration for half-maximal inhibition (IC50) was 8.37 µM.

Regarding `COCCCS(=O)(=O)N1CC[C@@H](NC(=O)c2cc(C3CC3)on2)C[C@H]1C` [compound 259, 5-cyclopropyl-N-((2R,4R)-1-((3-methoxypropyl)sulfonyl)-2-methylpiperidin-4-yl)isoxazole-3-carboxamide], the IC50 is greater than 10 µM.

Consider `CCS(=O)(=O)N1CC[C@H](NC(=O)c2cc(C3CC3)on2)C[C@@H]1C` [compound 260, 5-cyclopropyl-N-((2S,4S)-1-(ethylsulfonyl)-2-methylpiperidin-4-yl)isoxazole-3-carboxamide], for which the IC50 amounted to 2.45 µM.

Turning to `CCS(=O)(=O)N1CC[C@@H](NC(=O)c2cc(C3CC3)on2)C[C@H]1C` [compound 261, 5-cyclopropyl-N-((2R,4R)-1-(ethylsulfonyl)-2-methylpiperidin-4-yl)isoxazole-3-carboxamide], the IC50 is greater than 10 µM.

Regarding `CCS(=O)(=O)N1CC[C@@H](NC(=O)c2cc(C3CC3)on2)C[C@@H]1C` [compound 262, 5-cyclopropyl-N-((2S,4R)-1-(ethylsulfonyl)-2-methylpiperidin-4-yl)isoxazole-3-carboxamide], the half-maximal inhibitory concentration (IC50) is greater than 10 µM.

As for `C[C@@H]1CC(NC(=O)c2cc(C3CC3)on2)CCN1C(=O)CC1CCCC(N)C1` (stereo partly drawn) [compound 264, N-((2R)-1-(2-(3-aminocyclohexyl)acetyl)-2-methylpiperidin-4-yl)-5-cyclopropylisoxazole-3-carboxamide], the IC50 stood at 0.41 µM.

As to `C[C@H]1C[C@H](NC(=O)c2cc(C3CC3)on2)CCN1C(=O)CC1(CN)CCCCC1` [compound 266, N-((2S,4R)-1-(2-(1-(aminomethyl)cyclohexyl)acetyl)-2-methylpiperidin-4-yl)-5-cyclopropylisoxazole-3-carboxamide], the IC50 is greater than 10 µM.

Turning to `C[C@@H]1C[C@@H](NC(=O)c2cc(C3CC3)on2)CCN1C(=O)CC1(CN)CCCCC1` [compound 267, N-((2R,4S)-1-(2-(1-(aminomethyl)cyclohexyl)acetyl)-2-methylpiperidin-4-yl)-5-cyclopropylisoxazole-3-carboxamide], the IC50 came to 8.52 µM.

For the compound `C[C@@H]1C[C@@H](NC(=O)c2cc(C3CC3)on2)CCN1C(=O)CC(C)(C)CN` [compound 268, N-((2R,4S)-1-(4-amino-3,3-dimethylbutanoyl)-2-methylpiperidin-4-yl)-5-cyclopropylisoxazole-3-carboxamide], the concentration for half-maximal inhibition (IC50) was 3.15 µM.

Take `C[C@H]1C[C@H](NC(=O)c2cc(C3CC3)on2)CCN1C(=O)CCCCN` [compound 273, N-((2S,4R)-1-(5-aminopentanoyl)-2-methylpiperidin-4-yl)-5-cyclopropylisoxazole-3-carboxamide]: the IC50 came to 7.83 µM.

On to `C[C@H]1C[C@@H](NC(=O)c2cc(C3CC3)on2)CCN1S(=O)(=O)C1CC1` [compound 276, 5-cyclopropyl-N-((2S,4S)-1-(cyclopropylsulfonyl)-2-methylpiperidin-4-yl)isoxazole-3-carboxamide], for which the IC50 is 3.63 µM.

For `C[C@H]1C[C@@H](NC(=O)c2cc(C3CC3)on2)CCN1S(=O)(=O)N1CCCC1` [compound 277, 5-cyclopropyl-N-((2S,4S)-2-methyl-1-(pyrrolidin-1-ylsulfonyl)piperidin-4-yl)isoxazole-3-carboxamide], the half-maximal inhibitory concentration (IC50) stood at 0.654 µM.

With `CNS(=O)(=O)N1CC[C@H](NC(=O)c2cc(C3CC3)on2)C[C@@H]1C` [compound 278, 5-cyclopropyl-N-((2S,4S)-2-methyl-1-(N-methylsulfamoyl)piperidin-4-yl)isoxazole-3-carboxamide], the IC50 worked out at 2.89 µM.

These data come from patent US10577363B2, “Substituted piperidine compounds” (EPIZYME, INC., priority 2014, dated 2020).
